Experimental data reported in ChEMBL document CHEMBL1201862, “PubChem BioAssay data set” (2004).
The source made the active and inactive calls.

What was measured:
[1] = HPDE-C7 pancreatic duct cell viability loss – fluorescence, HTS (AID 430); assay type: functional, cell-based; conditions: Homo sapiens
[2] = viability loss of HPDE-C7K cells – cell-based, fluorescence, HTS, primary screen (AID 431); assay type: functional; conditions: Homo sapiens
[3] = biological target: T1, Lytic switch protein BZLF1 (Epstein-Barr virus (strain B95-8) (HHV-4) (Human herpesvirus 4), UniProt P03206); assay: inhibition of BZLF1 ZTA DNA binding – biochemical, fluorescence polarization, Epstein-Barr virus, 1536-well, counter-screen for EBNA-1 inhibitor project, dose response (AID 2377); design: species or system human gammaherpesvirus 4;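 also: fluorescence polarization of Cy5-labelled ZRE DNA probe bound by purified Zta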
T1 sequence (P03206 whole entry): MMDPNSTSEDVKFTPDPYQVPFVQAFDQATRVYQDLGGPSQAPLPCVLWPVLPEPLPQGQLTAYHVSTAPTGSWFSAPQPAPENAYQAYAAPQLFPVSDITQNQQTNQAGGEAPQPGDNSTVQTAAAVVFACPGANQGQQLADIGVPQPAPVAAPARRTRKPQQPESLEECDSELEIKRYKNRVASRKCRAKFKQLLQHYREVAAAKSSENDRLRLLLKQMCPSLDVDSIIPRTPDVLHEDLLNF

[4] = biological target: T2, Epstein-Barr nuclear antigen 1 (Epstein-Barr virus (strain B95-8) (HHV-4) (Human herpesvirus 4), UniProt P03211); assay: inhibition of EBV nuclear antigen 1 DNA binding – biochemical, fluorescence polarization, 1536-well, dose response (AID 2381); design: species or system human gammaherpesvirus 4;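 also: fluorescence polarization of a Cy5 DNA probe bound by EBNA-1 protein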
T2 sequence (P03211 whole entry): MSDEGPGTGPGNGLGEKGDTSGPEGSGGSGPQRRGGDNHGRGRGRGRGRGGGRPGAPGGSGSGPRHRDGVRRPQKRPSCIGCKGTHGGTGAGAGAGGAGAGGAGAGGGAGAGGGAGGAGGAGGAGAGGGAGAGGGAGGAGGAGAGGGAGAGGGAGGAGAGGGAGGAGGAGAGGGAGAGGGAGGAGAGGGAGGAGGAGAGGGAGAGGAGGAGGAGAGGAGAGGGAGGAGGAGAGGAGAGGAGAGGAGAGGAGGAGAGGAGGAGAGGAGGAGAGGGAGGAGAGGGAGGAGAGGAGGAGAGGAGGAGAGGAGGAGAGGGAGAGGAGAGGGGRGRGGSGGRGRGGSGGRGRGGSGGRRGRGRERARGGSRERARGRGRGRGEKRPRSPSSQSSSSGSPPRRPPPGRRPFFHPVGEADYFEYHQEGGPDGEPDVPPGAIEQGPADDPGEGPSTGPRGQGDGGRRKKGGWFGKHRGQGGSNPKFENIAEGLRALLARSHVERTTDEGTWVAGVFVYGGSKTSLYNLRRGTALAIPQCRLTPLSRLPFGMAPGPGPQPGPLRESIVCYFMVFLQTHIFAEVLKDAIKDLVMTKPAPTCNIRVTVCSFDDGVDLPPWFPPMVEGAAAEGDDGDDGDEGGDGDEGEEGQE

[5] = potency of ADAM10 substrate cleavage blockers – biochemical, QFRET, dose response (AID 743254);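 also: ADAM10 enzyme with the DM2 quenched FRET peptide as substrate; EDANS fluorescence gain as the protease cuts the substrate; inhibitor potency against ADAM10 proteolytic activity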
[6] = viability of uninfected HEp-2 cells – cell-based, HTS, cytotoxicity control for RSV inhibitor project, dose response (AID 2410); assay type: functional; conditions: human respiratory syncytial virus
[7] = biological target: Disintegrin and metalloproteinase domain-containing protein 17 (Homo sapiens, UniProt P78536); assay: inhibition of ADAM17 substrate cleavage – biochemical, quenched FRET substrate, counter-screen for ADAM10 exosite inhibitor project, dose response (AID 743253)
Chain of Disintegrin and metalloproteinase domain-containing protein 17 (P78536 whole entry, the tested form may be a part): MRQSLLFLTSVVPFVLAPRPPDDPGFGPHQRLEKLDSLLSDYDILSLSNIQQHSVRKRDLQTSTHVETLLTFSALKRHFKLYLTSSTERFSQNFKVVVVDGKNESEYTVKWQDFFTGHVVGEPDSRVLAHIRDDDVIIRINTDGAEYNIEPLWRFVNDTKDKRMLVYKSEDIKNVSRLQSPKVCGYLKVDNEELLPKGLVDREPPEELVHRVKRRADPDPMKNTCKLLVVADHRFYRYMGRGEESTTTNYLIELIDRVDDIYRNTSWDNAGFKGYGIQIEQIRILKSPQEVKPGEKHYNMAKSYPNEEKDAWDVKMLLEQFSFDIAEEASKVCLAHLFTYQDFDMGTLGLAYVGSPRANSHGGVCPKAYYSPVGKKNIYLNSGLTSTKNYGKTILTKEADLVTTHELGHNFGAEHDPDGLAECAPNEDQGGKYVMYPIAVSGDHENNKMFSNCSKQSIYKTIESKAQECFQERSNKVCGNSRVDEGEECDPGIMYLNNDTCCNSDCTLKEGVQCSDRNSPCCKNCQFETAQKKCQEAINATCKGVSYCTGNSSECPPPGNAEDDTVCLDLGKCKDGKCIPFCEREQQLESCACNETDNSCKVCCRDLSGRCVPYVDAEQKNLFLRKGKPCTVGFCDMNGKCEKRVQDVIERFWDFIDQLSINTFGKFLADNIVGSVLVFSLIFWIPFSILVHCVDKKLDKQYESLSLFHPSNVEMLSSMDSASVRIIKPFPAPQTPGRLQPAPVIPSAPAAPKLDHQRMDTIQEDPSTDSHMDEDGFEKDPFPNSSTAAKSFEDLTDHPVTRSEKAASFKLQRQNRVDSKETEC

[8] = Luminescence Cell-Based Dose Retest to Confirm Inhibitors of Cancer Stem Cells. [Related pubchem assays (depositor defined):AID2717, AID2721]; assay type: functional; conditions: Homo sapiens
[9] = biological target: Peroxisome proliferator-activated receptor gamma/Nuclear receptor coactivator 3 (Homo sapiens, UniProt P37231); assay type: functional;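 also: agonist potency for raising coactivator recruitment to the receptor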
Chain of Peroxisome proliferator-activated receptor gamma/Nuclear receptor coactivator 3 (P37231 whole entry): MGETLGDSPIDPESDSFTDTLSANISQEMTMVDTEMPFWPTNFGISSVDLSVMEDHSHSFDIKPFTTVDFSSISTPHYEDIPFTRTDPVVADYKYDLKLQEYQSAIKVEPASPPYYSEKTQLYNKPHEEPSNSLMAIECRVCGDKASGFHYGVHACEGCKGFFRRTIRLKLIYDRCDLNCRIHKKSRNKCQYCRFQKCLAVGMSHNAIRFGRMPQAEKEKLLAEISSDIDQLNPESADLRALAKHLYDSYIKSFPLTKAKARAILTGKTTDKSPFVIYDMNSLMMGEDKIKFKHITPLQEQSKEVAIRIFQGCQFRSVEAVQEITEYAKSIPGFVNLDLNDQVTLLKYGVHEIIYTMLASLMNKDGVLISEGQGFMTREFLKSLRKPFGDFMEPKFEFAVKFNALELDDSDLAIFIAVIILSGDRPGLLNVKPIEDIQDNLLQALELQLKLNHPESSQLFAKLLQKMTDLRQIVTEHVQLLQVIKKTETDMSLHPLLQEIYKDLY
Chain of Peroxisome proliferator-activated receptor gamma/Nuclear receptor coactivator 3 (Q9Y6Q9 whole entry, further chain): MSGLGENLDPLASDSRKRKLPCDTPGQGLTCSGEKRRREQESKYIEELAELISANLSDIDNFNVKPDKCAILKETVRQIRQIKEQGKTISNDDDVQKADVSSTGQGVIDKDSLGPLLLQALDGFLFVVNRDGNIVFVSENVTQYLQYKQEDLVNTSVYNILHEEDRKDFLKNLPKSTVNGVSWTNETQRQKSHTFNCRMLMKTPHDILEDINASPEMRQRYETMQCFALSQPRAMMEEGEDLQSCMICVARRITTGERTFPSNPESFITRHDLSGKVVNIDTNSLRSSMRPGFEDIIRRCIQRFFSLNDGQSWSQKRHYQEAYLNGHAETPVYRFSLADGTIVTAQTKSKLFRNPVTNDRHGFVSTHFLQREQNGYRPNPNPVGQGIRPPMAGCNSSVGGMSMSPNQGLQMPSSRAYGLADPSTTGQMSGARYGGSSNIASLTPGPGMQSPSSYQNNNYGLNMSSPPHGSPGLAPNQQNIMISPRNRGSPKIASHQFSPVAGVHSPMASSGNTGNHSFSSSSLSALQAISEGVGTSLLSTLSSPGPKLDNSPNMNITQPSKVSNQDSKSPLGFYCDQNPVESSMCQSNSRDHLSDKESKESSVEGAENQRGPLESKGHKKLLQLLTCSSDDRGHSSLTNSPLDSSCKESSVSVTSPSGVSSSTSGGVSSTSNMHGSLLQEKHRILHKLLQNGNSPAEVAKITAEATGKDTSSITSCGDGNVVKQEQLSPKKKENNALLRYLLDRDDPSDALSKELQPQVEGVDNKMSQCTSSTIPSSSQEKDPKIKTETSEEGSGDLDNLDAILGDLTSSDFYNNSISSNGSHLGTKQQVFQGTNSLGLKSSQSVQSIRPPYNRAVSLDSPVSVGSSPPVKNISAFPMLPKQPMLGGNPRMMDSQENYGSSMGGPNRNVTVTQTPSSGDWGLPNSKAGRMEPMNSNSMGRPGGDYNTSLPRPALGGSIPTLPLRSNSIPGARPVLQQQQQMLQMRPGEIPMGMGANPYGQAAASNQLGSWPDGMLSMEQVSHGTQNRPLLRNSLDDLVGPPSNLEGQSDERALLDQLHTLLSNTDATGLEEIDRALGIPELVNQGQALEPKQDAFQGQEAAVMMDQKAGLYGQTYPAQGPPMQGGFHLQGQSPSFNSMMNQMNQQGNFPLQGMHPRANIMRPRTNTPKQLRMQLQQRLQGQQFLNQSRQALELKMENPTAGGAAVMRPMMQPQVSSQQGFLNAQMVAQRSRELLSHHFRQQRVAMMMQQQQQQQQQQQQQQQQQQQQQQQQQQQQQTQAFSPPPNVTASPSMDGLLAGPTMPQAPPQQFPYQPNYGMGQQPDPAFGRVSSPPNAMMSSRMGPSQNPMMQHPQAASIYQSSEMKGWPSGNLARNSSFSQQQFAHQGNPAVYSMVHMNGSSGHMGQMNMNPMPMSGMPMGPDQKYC

[10] = biological target: Peroxisome proliferator-activated receptor gamma/Nuclear receptor coactivator 2 (Homo sapiens, UniProt P37231); assay type: functional;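 also: agonist potency for raising coactivator recruitment to the receptor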
[11] = biological target: Peroxisome proliferator-activated receptor gamma/Nuclear receptor coactivator 1 (Homo sapiens, UniProt P37231); assay type: functional;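 also: agonist potency as compounds enhance coactivator SRC-1 recruitment to PPARgamma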
[12] = NIH3T3 cell viability loss – ATP luminescence, mouse fibroblasts, counter-screen, dose response (AID 2010); assay type: functional, cell-based;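 also: cells exposed to compound for about 90 hours before reading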
[13] = Trypanosoma cruzi growth suppression in host cells – NIH3T3 host cells, beta-gal luminescence, confirmation (AID 2044); assay type: functional, cell-based;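 also: intracellular parasites grown in NIH/3T3 mouse fibroblasts as host cells; luminescent beta-galactosidase reporter signal from transgenic T. cruzi replicating inside host cells; inhibitors lower the luminescence signal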
[14] = biological target: T3, DNA repair protein RAD52 homolog (Homo sapiens, UniProt P43351); assay type: functional, biochemical
T3 sequence (P43351 whole entry): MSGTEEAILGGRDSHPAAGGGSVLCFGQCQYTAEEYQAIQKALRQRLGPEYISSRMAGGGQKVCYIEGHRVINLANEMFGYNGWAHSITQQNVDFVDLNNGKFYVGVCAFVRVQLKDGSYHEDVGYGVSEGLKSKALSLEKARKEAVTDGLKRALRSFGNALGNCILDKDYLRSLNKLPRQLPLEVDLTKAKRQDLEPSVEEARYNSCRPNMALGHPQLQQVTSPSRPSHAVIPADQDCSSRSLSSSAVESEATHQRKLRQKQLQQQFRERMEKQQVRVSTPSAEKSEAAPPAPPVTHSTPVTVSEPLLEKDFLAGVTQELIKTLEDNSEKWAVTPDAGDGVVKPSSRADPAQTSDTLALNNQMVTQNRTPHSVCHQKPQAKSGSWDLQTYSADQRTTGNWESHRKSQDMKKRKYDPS

[15] = viability loss in HeLa cells – cytotoxicity control for MgcRacGAP inhibitor project, dose response (AID 624300); assay type: functional
[16] = biological target: Paired box protein Pax-8 (Homo sapiens, UniProt Q06710); assay: PAX8 transcriptional activity inhibition in RMG-I – RMG-I cells, luciferase, cherry-pick, dose response (AID 687027); assay type: functional, cell-based;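 also: luciferase reporter driven by Pax8 target thyroperoxidase promoter measured by SteadyGlo luminescence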
Chain of Paired box protein Pax-8 (Q06710 whole entry): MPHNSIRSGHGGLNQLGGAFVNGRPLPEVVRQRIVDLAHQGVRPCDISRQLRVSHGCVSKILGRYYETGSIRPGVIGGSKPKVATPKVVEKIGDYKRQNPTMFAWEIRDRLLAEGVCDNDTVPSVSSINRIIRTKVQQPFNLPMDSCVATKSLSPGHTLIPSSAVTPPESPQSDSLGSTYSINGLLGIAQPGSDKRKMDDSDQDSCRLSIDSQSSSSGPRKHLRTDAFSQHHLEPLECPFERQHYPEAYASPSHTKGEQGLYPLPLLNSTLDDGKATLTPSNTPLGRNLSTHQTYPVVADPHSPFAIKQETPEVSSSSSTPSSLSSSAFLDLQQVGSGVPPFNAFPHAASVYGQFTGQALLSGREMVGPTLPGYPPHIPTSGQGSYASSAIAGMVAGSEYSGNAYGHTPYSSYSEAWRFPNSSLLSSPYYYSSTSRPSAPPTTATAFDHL

[17] = general cell-killing toxicity readout – plate reader, dry powder samples, cytotoxicity control for PAX8 inhibitor project, dose response (AID 743021); assay type: functional, cell-based
[18] = biological target: T4, Oxysterols receptor LXR-beta (Homo sapiens, UniProt P55055); assay: LXR agonists, Gal4 luciferase reporter, dose response, counter-screen for ssDAF-12 agonist project, cell-based, luminescence, HEK293, S. stercoralis campaign (AID 720737); assay type: functional; conditions: read-out: IC50 (the source's name)
T4 sequence (P55055 whole entry): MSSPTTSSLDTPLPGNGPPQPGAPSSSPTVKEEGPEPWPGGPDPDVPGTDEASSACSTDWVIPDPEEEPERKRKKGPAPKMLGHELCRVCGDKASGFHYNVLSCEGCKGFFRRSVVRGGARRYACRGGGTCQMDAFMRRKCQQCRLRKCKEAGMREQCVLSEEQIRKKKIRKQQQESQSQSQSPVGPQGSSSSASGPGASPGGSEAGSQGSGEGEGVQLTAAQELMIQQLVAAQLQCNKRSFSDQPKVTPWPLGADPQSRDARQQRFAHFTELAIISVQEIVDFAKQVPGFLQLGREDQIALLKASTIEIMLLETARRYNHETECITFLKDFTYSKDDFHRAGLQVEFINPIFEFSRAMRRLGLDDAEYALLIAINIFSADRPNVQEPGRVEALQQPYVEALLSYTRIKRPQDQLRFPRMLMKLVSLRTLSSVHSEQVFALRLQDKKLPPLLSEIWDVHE

[19] = Luminescence-based cell-based high throughput dose response assay to identify activators of the DAF-12 from the parasite S. stercoralis (ssDAF-12).; assay type: functional
[20] = cells
[21] = biological target: T4, Oxysterols receptor LXR-beta; assay type: functional, cell-based
[22] = biological target: Luciferin 4-monooxygenase (Photinus pyralis, UniProt P08659); assay: inhibition of purified Photinus pyralis luciferase – biochemical, luminescence, dose response (AID 1891)
Chain of Luciferin 4-monooxygenase (P08659 whole entry): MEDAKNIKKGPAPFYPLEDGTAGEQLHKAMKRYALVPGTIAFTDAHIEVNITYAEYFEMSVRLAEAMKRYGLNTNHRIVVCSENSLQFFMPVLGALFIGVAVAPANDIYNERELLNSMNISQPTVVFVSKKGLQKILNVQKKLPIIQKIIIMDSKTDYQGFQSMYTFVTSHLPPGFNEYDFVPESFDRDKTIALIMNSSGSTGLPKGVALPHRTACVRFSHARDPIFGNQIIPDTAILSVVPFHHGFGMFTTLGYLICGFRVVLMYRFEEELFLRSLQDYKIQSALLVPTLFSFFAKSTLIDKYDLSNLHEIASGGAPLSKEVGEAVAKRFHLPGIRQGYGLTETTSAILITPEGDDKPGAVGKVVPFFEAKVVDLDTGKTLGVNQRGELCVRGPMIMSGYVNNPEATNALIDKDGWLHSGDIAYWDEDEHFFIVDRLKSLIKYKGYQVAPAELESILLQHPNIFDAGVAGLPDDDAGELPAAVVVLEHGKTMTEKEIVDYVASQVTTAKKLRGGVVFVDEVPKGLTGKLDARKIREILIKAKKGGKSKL

[23] = Luminescence Cell-Based Dose Confirmation HTS to Identify Inhibitors of Platelet Dense Granule Release. [Related pubchem assays: 1663 (Primary HTS), 1678 (Summary of Project)]; assay type: functional

SMILES: O=C(c1ccc(F)cc1)N1CCC(N2CCCCCC2)CC1
- EC50 [1]: > 20 µM (not active)
- EC50 [2]: > 20 µM (not active)

SMILES: CCOc1ccc(OCC)c(NC(=O)C(NS(=O)(=O)c2ccc3c(c2)oc(=O)n3C)C(C)C)c1 (centres undefined)
- IC50 [3]: > 111 µM (not active)
- IC50 [4]: > 5.47 µM (active)

SMILES: CC(/C=C1\SC(=O)N(CC(=O)Nc2cccc(O)c2)C1=O)=C\c1ccccc1
- IC50 [5]: 10.2 µM (inactive)
- CC50 [6]: 13.9 µM (active)
- IC50 [7]: > 69.5 µM (inactive)
- AC50 [8]: 4.04 µM (active)

SMILES: O=C(CSc1nc2cccnc2n1Cc1ccccc1)NCc1ccco1
- EC50 [9]: > 79.4 µM (not active)
- EC50 [10]: > 79.4 µM (not active)
- EC50 [11]: > 79.4 µM (not active)

SMILES: O=C(CN(Cc1cccs1)S(=O)(=O)c1ccc(S(=O)(=O)NC2CCCCC2)cc1)Nc1ccccc1
- EC50 [12]: > 60 µM (not active)
- IC50 [5]: 7.69 µM (active)
- IC50 [7]: > 69.5 µM (inactive)
- EC50 [13]: 2.08 µM (active)

SMILES: COc1ccc2cc(CNCCOCCOCCNCc3ccc4cc(OC)ccc4c3)ccc2c1
- AC50 [14]: 2.45 µM (active)
- CC50 [15]: 9.1 µM (active)
- AC50 [16]: 19.1 µM (active)
- AC50 [17]: 20.3 µM (active)

SMILES: CCOC(=O)c1sc(NC(=O)COc2ccc3c(c2)OCO3)nc1C
- IC50 [3]: > 111 µM (not active)
- IC50 [4]: 7.18 µM (active)

SMILES: Oc1ccccc1-c1cc(-c2ccccc2Cl)[nH]n1
- EC50 [18]: > 67.5 µM (inactive)
- IC50 [19]: > 67.5 µM (inactive)

SMILES: Clc1ccccc1Cn1nnc(-c2ccccc2)n1
- EC50 [18]: > 67.5 µM (inactive)
- IC50 [19]: > 67.5 µM (inactive)

SMILES: COc1ccc(C(=O)/C=C/Nc2cc(C)ccn2)cc1
- EC50 [20]: > 67.6 µM (inactive)
- EC50 [21]: > 67.6 µM (inactive)
- EC50 [22]: 1.69 µM (active)
- EC50 [23]: 7.6 µM (active)
